Source: PMC9343605, “Structural insights into ligand recognition and selectivity of somatostatin receptors” (Cell Research, 2022)

What was measured:
[1] = target: T1, SSTR2 (Homo sapiens, UniProt P30874); assay: Whole cell binding assay, SSTR2, competition with 125I-Tyr11-SST14, CHO-K1; details: for Emax: CHO-K1, read-out: Span;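 on all read-outs here: Cell-bound radioactivity in lysed CHO-K1 cells read by scintillation counting, each mutation introduced singly into the WT receptor, at least three independent experiments run in technical triplicate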
T1 sequence (P30874 whole entry): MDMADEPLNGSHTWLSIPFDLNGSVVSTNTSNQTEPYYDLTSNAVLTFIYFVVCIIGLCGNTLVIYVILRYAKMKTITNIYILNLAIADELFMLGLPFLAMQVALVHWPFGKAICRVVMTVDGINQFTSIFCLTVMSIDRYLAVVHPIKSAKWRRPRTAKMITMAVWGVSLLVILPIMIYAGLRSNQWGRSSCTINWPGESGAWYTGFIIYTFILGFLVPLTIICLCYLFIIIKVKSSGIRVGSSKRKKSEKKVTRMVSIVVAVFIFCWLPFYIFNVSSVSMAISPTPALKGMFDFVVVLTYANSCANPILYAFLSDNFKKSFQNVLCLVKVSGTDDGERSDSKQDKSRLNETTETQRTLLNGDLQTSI
Protocol: (§1) For SSTR2 and SSTR4, CHO-K1 cells were cultured in F12 medium with 10% FBS and seeded at a density of 30,000 cells/well in Isoplate-96 plates (PerkinElmer). Twenty-four hours after transfection with the WT or mutant SSTR2/SSTR4, CHO-K1 cells were washed twice and incubated with blocking buffer (F12 supplemented with 25 mM HEPES and 0.1% (w/v) BSA, pH 7.4) for 2 h at 37 °C. […] Following incubation, cells were washed three times with ice-cold PBS and lysed by 50 μL lysis buffer (PBS supplemented with 20 mM Tris-HCl, 1% Triton X-100, pH 7.4). The radioactivity was subsequently counted (counts/min, CPM) in a scintillation counter (MicroBeta[2] Plate Counter, PerkinElmer) using a scintillation cocktail (OptiPhaseSuperMix, PerkinElmer). Data were analyzed by nonlinear regression using GraphPad PRISM 8.
(§2) aMutants represent that all mutations were introduced separately into the WT receptors
and expressed in CHO K1 cells.
(§3) bThe IC50 ratio was shown as IC50(mutant)/IC50(WT), indicating the shift between the WT
(§4) and mutant curves, reflecting the effect of the mutations on ligand binding.
(§5) cData are shown as mean ± S.E.M. form at least three independent experiments
(§6) performed in technical triplicate. One-way ANOVA was performed followed by
(§7) Dunnett’s post-test and compared with WT.
(§8) d The span is defined as the window between the maximal agonists response (Emax) and
(§9) e Sample size; the number of independent experiments performed in technical triplicate.

[2] = target: T2, SSTR2 (Homo sapiens, UniProt P30874, D122A); assay: as above; details: CHO-K1, read-out: Span
T2 sequence (P30874 whole entry D122A): as the sequence (P30874 whole entry) above, with D122A counted along it
Protocol: as §1, §2
and expressed in CHO K1 cells.
as §3, §4, §5, §6, §7, §8, §9

[3] = target: SSTR2 (Homo sapiens, UniProt P30874, D295A); assay: as above
Chain of SSTR2 (Homo sapiens, UniProt P30874, D295A) (P30874 whole entry D295A): as the sequence (P30874 whole entry) above, with D295A counted along it
Protocol: as §1, §2
and expressed in CHO K1 cells.
as §3, §4, §5, §6, §7, §8, §9

[4] = target: T3, SSTR2 (Homo sapiens, UniProt P30874, F272A); assay: as above; details: for Emax: CHO-K1, read-out: Span
T3 sequence (P30874 whole entry F272A): as the sequence (P30874 whole entry) above, with F272A counted along it
Protocol: as §1, §2
and expressed in CHO K1 cells.
as §3, §4, §5, §6, §7, §8, §9

[5] = target: SSTR2 (Homo sapiens, UniProt P30874, F275A); assay: as above; details: for Emax: CHO-K1, read-out: Span
Chain of SSTR2 (Homo sapiens, UniProt P30874, F275A) (P30874 whole entry F275A): as the sequence (P30874 whole entry) above, with F275A counted along it
Protocol: as §1, §2
and expressed in CHO K1 cells.
as §3, §4, §5, §6, §7, §8, §9

[6] = target: T4, SSTR2 (Homo sapiens, UniProt P30874, F294A); assay: as above; details: for Emax: CHO-K1, read-out: Span
T4 sequence (P30874 whole entry F294A): as the sequence (P30874 whole entry) above, with F294A counted along it
Protocol: as §1, §2
and expressed in CHO K1 cells.
as §3, §4, §5, §6, §7, §8, §9

[7] = target: SSTR2 (Homo sapiens, UniProt P30874, N43A); assay: as above
Chain of SSTR2 (Homo sapiens, UniProt P30874, N43A) (P30874 whole entry N43A): as the sequence (P30874 whole entry) above, with N43A counted along it
Protocol: as §1, §2
and expressed in CHO K1 cells.
as §3, §4, §5, §6, §7, §8, §9

[8] = target: T5, SSTR2 (Homo sapiens, UniProt P30874, Q102A); assay: as above; details: for Emax: CHO-K1, read-out: Span
T5 sequence (P30874 whole entry Q102A): as the sequence (P30874 whole entry) above, with Q102A counted along it
Protocol: as §1, §2
and expressed in CHO K1 cells.
as §3, §4, §5, §6, §7, §8, §9

[9] = target: T6, SSTR2 (Homo sapiens, UniProt P30874, Q126A); assay: as above; details: for Emax: CHO-K1, read-out: Span
T6 sequence (P30874 whole entry Q126A): as the sequence (P30874 whole entry) above, with Q126A counted along it
Protocol: as §1, §2
and expressed in CHO K1 cells.
as §3, §4, §5, §6, §7, §8, §9

[10] = target: SSTR2 (Homo sapiens, UniProt P30874, S42A); assay: as above
Chain of SSTR2 (Homo sapiens, UniProt P30874, S42A) (P30874 whole entry S42A): as the sequence (P30874 whole entry) above, with S42A counted along it
Protocol: as §1, §2
and expressed in CHO K1 cells.
as §3, §4, §5, §6, §7, §8, §9

[11] = target: T7, SSTR2 (Homo sapiens, UniProt P30874, Y302A); assay: as above; details: CHO-K1, read-out: Span
T7 sequence (P30874 whole entry Y302A): as the sequence (P30874 whole entry) above, with Y302A counted along it
Protocol: as §1, §2
and expressed in CHO K1 cells.
as §3, §4, §5, §6, §7, §8, §9

[12] = target: T8, SSTR2 (Homo sapiens, UniProt P30874, F208A); assay: cAMP accumulation assay (agonist-induced inhibition of forskolin-stimulated cAMP), SSTR2, HEK293F; type: cell-based; details: HEK293F; SSTR2 mutant F208^5.38A; mean ± SEM; read-out: Span;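 further: transiently transfected cells exposed to 2 µM forskolin and a ligand concentration series for 40 min at room temperature in IBMX-containing HBSS, then cAMP quantified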
T8 construct: expressed in transfected cells; host or cells: HEK293F
T8 sequence (P30874 whole entry F208A): as the sequence (P30874 whole entry) above, with F208A counted along it
Protocol: (§10) HEK293F cells were transiently transfected with WT or mutant SSTR2/SSTR4 using transfection reagent (PEI MAX 2000, Polysciences) and incubated at 37 °C in 5% CO2. Forty-eight hours after transfection, cells were centrifuged and resuspended in stimulation buffer (Hanks’ balanced salt solution (HBSS) supplemented with 5 mM HEPES, 0.5 mM IBMX and 0.1% (w/v) bovine serum albumin (BSA), pH 7.4) to a density of 200,000 cells/mL and added to 384-well white plates (PerkinElmer, 1000 cells/well). cAMP accumulation was measured by a LANCE Ultra cAMP kit (PerkinElmer) according to the manufacturer’s instructions. In brief, transfected cells were incubated for 40 min in stimulation buffer with 2.5 μL forskolin (SSTR2: 2 μM; SSTR4: 4 μM) and gradient concentration of ligand at RT. The reactions were stopped by addition of lysis buffer containing 5 μL Eu-cAMP tracer and 5 μL ULight-anti-cAMP. Plates were then incubated for 60 min at RT and time-resolved FRET signals were measured at 620 nm and 665 nm by an EnVision multilabel plate reader (PerkinElmer). Data were analyzed in GraphPad PRISM 8 and all values were normalized to the WT for each ligand. All outcomes were repeated at least three times.
(§11) aMutants represent that mutations were introduced separately into the WT receptors and
(§12) transiently expressed in HEK 293F cells.
(§13) bThe EC50 ratio was shown as EC50(mutant)/EC50(WT), indicating the shift between the WT
(§14) and mutant curves, reflecting the effect of the mutations on receptor signaling.
(§15) cData are shown as mean ± S.E.M. from at least three independent experiments
as §6
(§16) Dunnett’s post-test and compared with WT. The P value was defined as: *P<0.05;
as §8, §9
(§17) f Receptor expression level of HEK 293F cells was determined independently by flow
(§18) cytometry with anti-FLAG antibody and shown as per cent compared to the WT.

[13] = target: T9, SSTR2 (Homo sapiens, UniProt P30874, F294N); assay: as above; type: cell-based; details: HEK293F; SSTR2 mutant F294^7.35N; mean ± SEM; read-out: Span
T9 construct: expressed in transfected cells; host or cells: HEK293F
T9 sequence (P30874 whole entry F294N): as the sequence (P30874 whole entry) above, with F294N counted along it
Protocol: as §10, §11, §12, §13, §14, §15, §6, §16, §8, §9, §17, §18

[14] = target: T10, SSTR2 (Homo sapiens, UniProt P30874, I284A); assay: as above; type: cell-based; details: HEK293F; SSTR2 mutant I284^ECL3A; mean ± SEM; read-out: Span
T10 construct: expressed in transfected cells; host or cells: HEK293F
T10 sequence (P30874 whole entry I284A): as the sequence (P30874 whole entry) above, with I284A counted along it
Protocol: as §10, §11, §12, §13, §14, §15, §6, §16, §8, §9, §17, §18

[15] = target: T11, SSTR2 (Homo sapiens, UniProt P30874, K291A); assay: as above; type: cell-based; details: HEK293F; SSTR2 mutant K291^7.32A; mean ± SEM; read-out: Span
T11 construct: expressed in transfected cells; host or cells: HEK293F
T11 sequence (P30874 whole entry K291A): as the sequence (P30874 whole entry) above, with K291A counted along it
Protocol: as §10, §11, §12, §13, §14, §15, §6, §16, §8, §9, §17, §18

[16] = target: T12, SSTR2 (Homo sapiens, UniProt P30874, N276A); assay: as above; type: cell-based; details: HEK293F; SSTR2 mutant N276^6.55A; mean ± SEM; read-out: Span
T12 construct: expressed in transfected cells; host or cells: HEK293F
T12 sequence (P30874 whole entry N276A): as the sequence (P30874 whole entry) above, with N276A counted along it
Protocol: as §10, §11, §12, §13, §14, §15, §6, §16, §8, §9, §17, §18

[17] = target: T13, SSTR2 (Homo sapiens, UniProt P30874, P286A); assay: as above; type: cell-based; details: HEK293F; SSTR2 mutant P286^ECL3A; mean ± SEM; read-out: Span
T13 construct: expressed in transfected cells; host or cells: HEK293F
T13 sequence (P30874 whole entry P286A): as the sequence (P30874 whole entry) above, with P286A counted along it
Protocol: as §10, §11, §12, §13, §14, §15, §6, §16, §8, §9, §17, §18

[18] = target: T14, SSTR2 (Homo sapiens, UniProt P30874, S192A); assay: as above; type: cell-based; details: HEK293F; SSTR2 mutant S192^ECL2A; mean ± SEM; read-out: Span
T14 construct: expressed in transfected cells; host or cells: HEK293F
T14 sequence (P30874 whole entry S192A): as the sequence (P30874 whole entry) above, with S192A counted along it
Protocol: as §10, §11, §12, §13, §14, §15, §6, §16, §8, §9, §17, §18

[19] = target: T15, SSTR2 (Homo sapiens, UniProt P30874, V298A); assay: as above; type: cell-based; details: HEK293F; SSTR2 mutant V298^7.39A; mean ± SEM; read-out: Span
T15 construct: expressed in transfected cells; host or cells: HEK293F
T15 sequence (P30874 whole entry V298A): as the sequence (P30874 whole entry) above, with V298A counted along it
Protocol: as §10, §11, §12, §13, §14, §15, §6, §16, §8, §9, §17, §18

[20] = target: T16, SSTR2 (Homo sapiens, UniProt P30874, Y205W); assay: as above; type: cell-based; details: HEK293F; SSTR2 mutant Y205^5.35W; mean ± SEM; read-out: Span
T16 construct: expressed in transfected cells; host or cells: HEK293F
T16 sequence (P30874 whole entry Y205W): as the sequence (P30874 whole entry) above, with Y205W counted along it
Protocol: as §10, §11, §12, §13, §14, §15, §6, §16, §8, §9, §17, §18

[21] = target: T1, SSTR2; assay: as above; type: cell-based; design: expressed in transfected cells; host or cells: HEK293F; details: HEK293F; WT SSTR2; window between Emax and vehicle; mean ± SEM; read-out: Span
Protocol: as §10, §11, §12, §13, §14, §15, §6, §16, §8, §9, §17, §18

[22] = target: T2, SSTR2; assay: as above; type: cell-based; design: expressed in transfected cells; host or cells: HEK293F; details: HEK293F; SSTR2 mutant D122^3.32A; mean ± SEM; read-out: Span
Protocol: as §10, §11, §12, §13, §14, §15, §6, §16, §8, §9, §17, §18

[23] = target: T3, SSTR2; assay: as above; type: cell-based; design: expressed in transfected cells; host or cells: HEK293F; details: HEK293F; SSTR2 mutant F272^6.51A; mean ± SEM; read-out: Span
Protocol: as §10, §11, §12, §13, §14, §15, §6, §16, §8, §9, §17, §18

[24] = target: T4, SSTR2; assay: as above; type: cell-based; design: expressed in transfected cells; host or cells: HEK293F; details: HEK293F; SSTR2 mutant F294^7.35A; mean ± SEM; read-out: Span
Protocol: as §10, §11, §12, §13, §14, §15, §6, §16, §8, §9, §17, §18

[25] = target: T5, SSTR2; assay: as above; type: cell-based; design: expressed in transfected cells; host or cells: HEK293F; details: HEK293F; SSTR2 mutant Q102^2.63A; mean ± SEM; read-out: Span
Protocol: as §10, §11, §12, §13, §14, §15, §6, §16, §8, §9, §17, §18

[26] = target: T6, SSTR2; assay: as above; type: cell-based; design: expressed in transfected cells; host or cells: HEK293F; details: HEK293F; SSTR2 mutant Q126^3.36A; mean ± SEM; read-out: Span
Protocol: as §10, §11, §12, §13, §14, §15, §6, §16, §8, §9, §17, §18

[27] = target: SSTR2 (Homo sapiens, UniProt P30874, T194A); assay: as above; type: cell-based; design: expressed in transfected cells; host or cells: HEK293F; details: HEK293F; SSTR2 mutant T194^ECL2A; mean ± SEM; read-out: Span
Chain of SSTR2 (Homo sapiens, UniProt P30874, T194A) (P30874 whole entry T194A): as the sequence (P30874 whole entry) above, with T194A counted along it
Protocol: as §10, §11, §12, §13, §14, §15, §6, §16, §8, §9, §17, §18

[28] = target: SSTR2 (Homo sapiens, UniProt P30874, T212A); assay: as above; type: cell-based; design: expressed in transfected cells; host or cells: HEK293F; details: HEK293F; SSTR2 mutant T212^5.42A; mean ± SEM; read-out: Span
Chain of SSTR2 (Homo sapiens, UniProt P30874, T212A) (P30874 whole entry T212A): as the sequence (P30874 whole entry) above, with T212A counted along it
Protocol: as §10, §11, §12, §13, §14, §15, §6, §16, §8, §9, §17, §18

[29] = target: T7, SSTR2; assay: as above; type: cell-based; design: expressed in transfected cells; host or cells: HEK293F; details: HEK293F; SSTR2 mutant Y302^7.43A; mean ± SEM; read-out: Span
Protocol: as §10, §11, §12, §13, §14, §15, §6, §16, §8, §9, §17, §18

[30] = target: SSTR2 (Homo sapiens, UniProt P30874, Y205A); assay: Whole cell binding assay, SSTR2, competition with 125I-Tyr11-SST14, CHO-K1; details: CHO-K1, read-out: Span;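 further: Cell-bound radioactivity in lysed CHO-K1 cells read by scintillation counting, each mutation introduced singly into the WT receptor, at least three independent experiments run in technical triplicate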
Chain of SSTR2 (Homo sapiens, UniProt P30874, Y205A) (P30874 whole entry Y205A): as the sequence (P30874 whole entry) above, with Y205A counted along it
Protocol: as §1, §2
and expressed in CHO K1 cells.
as §3, §4, §5, §6, §7, §8, §9

Question: `CC(=O)N[C@@H](Cc1ccc([N+](=O)[O-])cc1)C(=O)N[C@@H]1CSSC[C@@H](C(=O)N[C@H](Cc2ccc(O)cc2)C(N)=O)NC(=O)[C@H]([C@@H](C)O)NC(=O)[C@H](CCCCN)NC(=O)[C@@H](Cc2c[nH]c3ccccc23)NC(=O)[C@H](Cc2ccc(O)cc2)NC1=O` [CYN 154806] was tested. Which IC50 [1] did it give?
Answer: Its IC50 is 0.00437 µM.

Question: What about the Emax [1] of the same compound?
Answer: The Emax was 100 ± 6%.

Question: And the Emax [2]?
Answer: The Emax was 20 ± 2%.

Question: And the IC50 [3]?
Answer: Its IC50 is 0.00355 µM.

Question: And the Emax ([3]; CHO-K1, read-out: Span)?
Answer: The Emax was 62 ± 6%.

Question: What about the IC50 [4] of the same compound?
Answer: Its IC50 is 0.0234 µM.

Question: What about the Emax [4] of the same compound?
Answer: The Emax was 21 ± 6%.

Question: What about the IC50 [5] of the same compound?
Answer: The IC50 was 0.0219 µM.

Question: What about the Emax [5] of the same compound?
Answer: Its Emax is 69 ± 7%.

Question: What about the IC50 [6] of the same compound?
Answer: Its IC50 is 0.0219 µM.

Question: And the Emax [6]?
Answer: Its Emax is 36 ± 6%.

Question: And the IC50 [7]?
Answer: The IC50 was 0.00813 µM.

Question: What about the Emax ([7]; CHO-K1, read-out: Span) of the same compound?
Answer: Its Emax is 96 ± 8%.

Question: What about the IC50 [8] of the same compound?
Answer: Its IC50 is 0.0204 µM.

Question: And the Emax [8]?
Answer: Its Emax is 24 ± 5%.

Question: And the IC50 [9]?
Answer: Its IC50 is 0.135 µM.

Question: What about the Emax [9] of the same compound?
Answer: Its Emax is 25 ± 4%.

Question: And the IC50 [10]?
Answer: The IC50 was 0.00275 µM.

Question: What about the Emax ([10]; CHO-K1, read-out: Span) of the same compound?
Answer: The Emax was 145 ± 9%.

Question: What about the Emax [11] of the same compound?
Answer: Its Emax is 15 ± 5%.

Question: With `C[C@@H](O)[C@@H]1NC(=O)[C@H](CCCCN)NC(=O)[C@@H](Cc2c[nH]c3ccccc23)NC(=O)[C@H](Cc2ccccc2)NC(=O)[C@@H](NC(=O)[C@H](N)Cc2ccccc2)CSSC[C@@H](C(=O)N[C@H](CO)[C@@H](C)O)NC1=O` [Octreotide] as the compound, how does the Emax [12] read?
Answer: Its Emax is 128 ± 8%.

Question: What about the Emax [13] of the same compound?
Answer: Its Emax is 47 ± 9%.

Question: What about the Emax [14] of the same compound?
Answer: The Emax was 58 ± 8%.

Question: What about the Emax [15] of the same compound?
Answer: The Emax was 103 ± 8%.

Question: What about the Emax [16] of the same compound?
Answer: The Emax was 75 ± 9%.

Question: And the Emax [17]?
Answer: Its Emax is 72 ± 8%.

Question: What about the Emax [18] of the same compound?
Answer: Its Emax is 146 ± 13%.

Question: What about the Emax [19] of the same compound?
Answer: The Emax was 127 ± 4%.

Question: And the Emax [20]?
Answer: The Emax was 97 ± 10%.

Question: What about the Emax [21] of the same compound?
Answer: The Emax was 100 ± 4%.

Question: What about the Emax [22] of the same compound?
Answer: The Emax was 16 ± 4%.

Question: And the Emax [23]?
Answer: Its Emax is 134 ± 17%.

Question: And the Emax [24]?
Answer: The Emax was 123 ± 10%.

Question: What about the Emax [25] of the same compound?
Answer: The Emax was 30 ± 5%.

Question: What about the Emax [26] of the same compound?
Answer: Its Emax is 101 ± 7%.

Question: And the Emax [27]?
Answer: Its Emax is 125 ± 7%.

Question: And the Emax [28]?
Answer: The Emax was 90 ± 10%.

Question: What about the Emax [29] of the same compound?
Answer: The Emax was 147 ± 12%.

Question: And the Emax [1]?
Answer: The Emax was 100 ± 7%.

Question: What about the Emax [2] of the same compound?
Answer: Its Emax is 16 ± 7%.

Question: And the Emax [4]?
Answer: The Emax was 26 ± 6%.

Question: What about the Emax [5] of the same compound?
Answer: The Emax was 51 ± 4%.

Question: And the Emax [6]?
Answer: The Emax was 28 ± 9%.

Question: What about the Emax [8] of the same compound?
Answer: Its Emax is 27 ± 4%.

Question: And the Emax [9]?
Answer: Its Emax is 16 ± 8%.

Question: What about the Emax [30] of the same compound?
Answer: Its Emax is 60 ± 5%.

Question: What about the Emax [11] of the same compound?
Answer: Its Emax is 18 ± 7%.
